From PMC8147976, “Partitioning and Spatial Distribution of Drugs in Ocular Surface Tissues” (Pharmaceutics, 2021)
Read-outs that look alike come from different tables or passages of the source.

What was measured:
[1] = Drug distribution in porcine ocular tissues ex vivo, comparison across tissues; type: in vitro ADME; details: for time to reach equilibrium in tissue: porcine tissues ex vivo, Figure 1
From the text: Cornea. […] Bulbar conjunctiva.

[2] = de-epithelized vs intact cornea; ref [29],[46]; cited from earlier work
[3] = cited from earlier work
[4] = for ratio of signal against twice the signal of propranolol, Epithelium 10 min / ratio of signal against twice the signal of propranolol, Epithelium 60 min: rabbit corneal epithelium; for ratio of signal against twice the signal of propranolol, Epithelium 10 min / ratio of signal against twice the signal of propranolol, Stroma 10 min: 10 min after eye drop; for ratio of signal against twice the signal of propranolol, Epithelium 10 min / ratio of signal against twice the signal of propranolol, Epithelium 60 min / ratio of signal against twice the signal of propranolol, Stroma 10 min / ratio of signal against twice the signal of propranolol, Stroma 60 min: MALDI-IMS; for ratio of signal against twice the signal of propranolol, Epithelium 60 min / ratio of signal against twice the signal of propranolol, Stroma 60 min: 60 min after eye drop; for ratio of signal against twice the signal of propranolol, Stroma 10 min / ratio of signal against twice the signal of propranolol, Stroma 60 min: rabbit corneal stroma
Description: Three months old female New Zealand White rabbits, 2.5–2.8 kg (Envigo Laboratories, Blackthron, Bicester, UK), were used in the study to determine the distribution of drugs in the cornea. […] The rabbits were sacrificed by injecting a lethal dose (2 mL/kg) of pentobarbital (Mebunat vet 60 mg/mL; Orion Pharma, Finland) into the marginal ear vein at 10, 20, and 60 min post-dosing. The eyes were removed and snap-frozen with liquid nitrogen in plastic tubes and stored at −80 °C until sample preparation and analysis with MALDI-IMS.
The frozen eyes were mounted onto a chuck using an optimal cutting temperature compound (Sakura Finetek, Torrance, CA, USA). The samples were sectioned to 20 μm or 35 μm thickness at −20 °C on a Leica CM Cryostat (S3050, Leica Microsystems GmbH, Wetzlar, Germany) and collected on a cryo-film (3C16UF, SECTION-LAB Co. Ltd., Yokohama, Japan) by a modified Kawamoto method. The film was subsequently mounted onto a microscope glass slide using a double-sided copper tape, and the sample slides were dried in a lyophilization chamber. The slides were washed twice with 50 mM ammonium formate for 10 s and dried in a vacuum desiccator. The sample slides contained sections from three eyes from the eye drop experiment and three blanks. The matrix α-cyano-4hydroxycinnamic acid (CHCA) (7 mg/mL in 50% acetonitrile containing 1% trifluoro acetic acid) (Sigma-Aldrich, St. Louis, MO, USA) was added via spray deposition using 10 passes, flow rate of 100 μL/min, temperature of 77 °C, track spacing of 2.5 mm, and velocity of 1300 mm/min (TM-Sprayer, HTX Technologies, Chapel Hill, NC, USA).
Fourier transform-ion cyclotron resonance (FT-ICR) MALDI-IMS was performed using a Bruker 7T SolariX XR mass spectrometer (Bruker Daltonics, Bremen, Germany) at 50 μm spatial resolution for the corneal area and 150 μm spatial resolution for the rest of the eye. […] MALDI images of each signal were plotted with a 5 mDa mass window using flexImaging^TM software (v4.1, Bruker Daltonics, Bremen, Germany) with datasets normalized by the RMS method and pixel interpolation.
The data for calculation was obtained by taking six crosscuts through the cornea; no normalization was used.

[5] = ex vivo, 180 min epithelial side exposure, donor 2 ng/µL
in vitro = details: pig, pH 7.4
[6] = ex vivo, 180 min epithelial side exposure, donor 2 ng/µL; remark: listed apart in the source
[7] = ex vivo, 180 min epithelial side exposure, donor 2 ng/µL; remark: listed apart in the source
[8] = design: method as in PMID 3246568; details: inferior drug insert application, rabbit; ref [56]; cited from earlier work
[9] = n-octanol/buffer solution distribution coefficient at pH 7.4, ref [10],[44]

CC(C)NCC(O)COc1ccc(CC(N)=O)cc1 (stereo not drawn) [Atenolol]
difference in concentration between corneal epithelium, corneal stroma and conjunctiva ([1]; ex vivo): two-fold
time to reach equilibrium in tissue [1]: ≈ 30 min

CC(C)NCC(O)COc1ccc(CCOCC2CC2)cc1 (stereo not drawn) [Betaxolol]
change of permeability in de-epithelized corneas [2]: only modest or no changes
time to reach equilibrium in tissue [1]: ≈ 60 min
Log D7.4 ([3]; as listed in Table S2): 0.43
Log D7.4 [3, 9]: 0.43

COCCc1ccc(OCC(O)CNC(C)C)cc1 (stereo not drawn) [Metoprolol]
Log D7.4 ([3]; as listed in Table S2): −0.5

CC(C)(C)NCC(O)COc1cccc2c1CC(O)C(O)C2 (stereo not drawn) [Nadolol]
time to reach equilibrium in tissue [1]: ≈ 30 min
Log D7.4 [3, 9]: −1.54

CC(C)NCC(O)COc1cccc2[nH]ccc12 (stereo not drawn) [Pindolol]
Log D7.4 ([3]; as listed in Table S2): 0.06
Log D7.4 [3, 9]: −0.5
ratio of signal against twice the signal of propranolol, Epithelium 10 min [4]: 0.21 ± 0.01
ratio of signal against twice the signal of propranolol, Epithelium 60 min [4]: 0.356± 0.08
ratio of signal against twice the signal of propranolol, Stroma 10 min [4]: 0.57 ± 0.00
ratio of signal against twice the signal of propranolol, Stroma 60 min [4]: 0.83 ± 0.13

CC(C)NCC(O)COc1cccc2ccccc12 (stereo not drawn) [Propranolol]
concentration in corneal epithelium [5]: 9.46 ng/mg tissue
change of permeability in de-epithelized corneas [2]: only modest or no changes
time to reach equilibrium in tissue [1]: ≈ 60 min
MALDI-IMS signal intensity in corneal tissues and aqueous humor ([4]; rabbit, in vivo): highest intensity
Kp at 3 h, 2 µg/mL (in vitro): 4.7
concentration in conjunctiva [6]: 1.24 ng/mg
concentration in corneal stroma [7]: 0.83 ng/mg

CC(C)(C)NC[C@H](O)COc1nsnc1N1CCOCC1 [Timolol]
time to reach equilibrium in tissue [1]: ≈ 30 min
Log D7.4 [3, 9]: −1.43
timolol levels in the inferior relative to the superior cornea [8]: 4–6 fold
ratio of signal against twice the signal of propranolol, Epithelium 10 min [4]: 0.19 ± 0.02
ratio of signal against twice the signal of propranolol, Epithelium 60 min [4]: 0.25 ± 0.08
ratio of signal against twice the signal of propranolol, Stroma 10 min [4]: 0.36 ± 0.01
ratio of signal against twice the signal of propranolol, Stroma 60 min [4]: 0.45 ± 0.17
MALDI-IMS signal in corneal tissues and aqueous humor ([4]; rabbit, in vivo): below the limit of detection in many pixels
